# Tested on: Pt-GG adducts in DNA
# Experiment: In vivo screening for cis-platin uptake inhibitors and DPH co-administration, ICA of Pt-GG adducts
# Parameters: species or system mice
# Settings: 24 h; for inhibition of DNA platination in the three target cell types: independent of dosing (quinine 100 or 50 mg/kg, butylscopolamine 20 or 10 mg/kg) i.p. 1 h before cis-platin 10 mg/kg
# Method: The sacrificed animals were immediately dissected. Kidneys and lungs were submerged in embedding medium (Tissue-Tek O.C.T. Compound) and frozen in liquid nitrogen. Cochleae were dissected and fixed by intralabyrinthine perfusion with Carnoy's solution (3 hours; for DNA adduct staining) or with formaldehyde (4 % in PBS; 1 hour; for OCT protein staining). Cochleae were decalcified in EDTA solution (10 % w/v in PBS) for 3 days and then placed in sucrose solutions (5 % in PBS for 12 hours and 15 % in PBS for 5 hours). After that samples were imbedded in Tissue-Tek medium, frozen and cryosections of 10 µm cut.
# Frozen tissue sections of the inner ear or kidneys on ImmunoSelect slides were fixed in methanol at -20°C for at least 2 hours or overnight and then rehydrated for 10 minutes in PBS, at room temperature. To provide better antibody penetration in the tissue structures the samples underwent alkaline permeabilisation of cytoplasmic and nuclear membranes for 5 minutes at 0°C, followed by washing in PBS at room temperature for 5 minutes. The proteolytic cleavage of cytoplasmic and nuclear proteins was performed in two steps. At first, a pre-warmed pepsin solution (60 µg /ml for cell culture or 100 µg/ml for tissue sections in PBS/HCl) was applied onto the tissue sections and incubated for 10 minutes at 37°C in a humidified chamber. The incubation with pepsin was followed by washing in PBS for 10 minutes at room temperature. In a second step tissue sections were incubated with pre-warmed proteinase K solution (40 µg/ml for cell cultures or 50-100 µg /ml for tissue sections in proteinase K buffer) for 10 minutes at 37°C in a humidified chamber. Subsequently the sections were washed in 0.2 % glycine in PBS for 10 minutes at room temperature. Non-specific binding of the antibodies was inhibited by incubation with a blocking solution of 1 % casein in PBS for 30 minutes at room temperature. The samples were then incubated with a monoclonal antibody (R-C18, Liedert et al., 2006) specific for Pt-GG adducts in DNA (0.1 µg/ml in 0.1 % BSA/PBS) over night at 4°C in the humidified chamber. Subsequently, the slides were washed in 0.05 % Tween 20 in PBS for 5 minutes at room temperature and then in PBS for 5 minutes. The incubation with secondary Cy3-labeled rabbit anti-(rat Ig) antibodies, was performed (0.2 µg/ml in 0.1 % BSA/PBS) for 60 minutes at 37°C in the humidified chamber, followed by washing in 0.05 % Tween 20 in PBS for 5 minutes at room temperature and then in PBS for 5 minutes. The nuclear DNA was counterstained with DAPI (1 µg/ml in PBS) for 30 minutes at room temperature. The slides were then washed in PBS. Finally, the samples were embedded with a densification compound "[…]". The quantification of immuno- and DNA-fluorescence was performed by means of a microscope-coupled digital image analysis system ACAS 6.0 Cytometry Analysis System. Adduct levels in the nuclear DNA of individual cells were calculated by normalizing antibody-derived fluorescence signals to the corresponding DNA content of the same nucleus, and were expressed as arbitrary fluorescence units (AFUs). Data were assigned to specific cell types as determined by histochemistry.
# The mice were separated into two groups for pretreatment with low or high doses of the test compounds. […] The low dose group received half the dose of the high dose group (50, 50, 30 or 10 mg/kg, respectively). […] Cochleae and kidneys were dissected for immunostaining and ICA analyses of Pt-GG adduct levels in specific cell types (Figure 8). In tissue sections from mice pretreated with quinine or butylscopolamine no inhibition of DNA platination was observed, independent of the dosing, in either of the three target cell types (renal tubulus epithelium cells (Figure 8 A), cochlear marginal cells (Figure 8B) and outer hair cells (Figure 8 C)). […]
Compound,inhibition of DNA platination in the three target cell types,"reduction of adduct levels in all three target cell types (high dose (ranitidine 100 mg/kg) i.p. 1 h before cis-platin 10 mg/kg, renal tubulus epithelium, cochlear marginal and outer hair cells)"
CCCC[N+]1(C)[C@@H]2C[C@@H](OC(=O)[C@H](CO)c3ccccc3)C[C@H]1[C@@H]1O[C@@H]12 (stereo partly drawn) [butylscopolamine],no inhibition,
CNC(=C[N+](=O)[O-])NCCSCc1ccc(CN(C)C)o1 [ranitidine],,15 - 20%
C=C[C@H]1C[N@@]2CC[C@H]1C[C@H]2[C@H](O)c1ccnc2ccc(OC)cc12 [quinine],no inhibition,

# Source: patent EP2601945A1 (Thomale, Jürgen, priority 2011, dated 2013)
